Source: article PMC6753678, “Fueling Open Innovation for Malaria Transmission-Blocking Drugs: Hundreds of Molecules Targeting Early Parasite Mosquito Stages” (Frontiers in Microbiology, 2019)
Several values for one entry are separate records, joined by “and”; a condition that tells them apart may be missing. Equal values may be shown once. Read-outs that look alike come from different tables or passages of the source.

Assays:
[1] = test system: P. berghei ookinete development
[2] = test system: P. falciparum female gametocytes; assay: P. falciparum Dual Gamete Formation Assay (Pf DGFA), female readout; settings: for Pf DGFA Female, Expt 1 / Pf DGFA Female, Expt 2 / Pf DGFA Female, Expt 3 / Pf DGFA Female, Expt 4: 1µM; for inhibition at 1 µM: Plasmodium falciparum, read-out: % inhibition Pf DGFA (female) 1 μM (±SEM), 1 μM, mean of four experiments
[3] = test system: P. berghei oocyst intensity in Anopheles stephensi mosquitoes; assay: P. berghei standard membrane feeding assay (Pb SMFA); settings: for Raw mosquito counts (oocysts per mosquito): one mosquito per cell; for Number of oocysts counted per mosquito (raw mosquito counts): individual mosquito
[4] = test system: 3D7-strain P. falciparum asexual parasites; assay: P. falciparum asexual growth inhibition assay (Pf GIA); format: cell-based, Plasmodium falciparum; settings: Plasmodium falciparum
Summary of the method: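 Parasites at 0.25% parasitemia, 2% hematocrit in Albumax-supplemented RPMI were exposed to compounds in dose response for 72 h at 37°C under 5% CO2/5% O2. Viability was read as LDH activity (NBT/diaphorase, A650 after freeze-thaw). Percent inhibition was calculated against chloroquine and DMSO controls, mean of three biological replicates.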

[5] = test system: P. falciparum male gametocytes; assay: P. falciparum Dual Gamete Formation Assay (Pf DGFA), male readout; settings: for Pf DGFA Male, Expt 1 / Pf DGFA Male, Expt 2 / Pf DGFA Male, Expt 3 / Pf DGFA Male, Expt 4: 1µM
[6] = test system: P. berghei ookinete development; assay: microbe, parasite or virus in culture; settings: Plasmodium berghei
HepG2 cells [7] = assay: HepG2 cytotoxicity assay; settings: for Pb ODA (this manuscript) HepG2 cytoxicity: HepG2 cytotoxicity listed with the Pb ODA data set (this manuscript); for IC50: Homo sapiens, HepG2, 48 h, read-out: IC50 HepG2
Summary of the method: (§1)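 Percent inhibition derived from fluorescent viability readout, normalised to DMSO (negative) and 50 μM doxorubicin (positive). Compound incubation lasted 48 h at 37°C, 5% CO2, with 2,500 HepG2 cells/well in MEM plus 10% FBS and 1% NEAA.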

HepG2 cells [8] = settings: cited from earlier work
[9] = test system: P. falciparum female gametocytes; set-up: method as in Miguel-Blanco et al 2017; settings: TCAMS screen comparison; ref Miguel-Blanco et al 2017; read-out: Pf FGAA IC50; cited from earlier work
[10] = test system: P. falciparum late stage (stages IV-V) gametocytes; set-up: method as in Almela et al 2016; settings: TCAMS screen comparison; ref Almela et al 2016; read-out: Pf GCT ATP IC50; cited from earlier work
HepG2 cytotoxicity assay = settings: human, HepG2 cells
Summary of the method: as §1

[11] = read-out: % inhibition Pb SMFA 1 μM (±SEM), inhibition of oocyst intensity at 1 μM
[12] = 3D7, dose response confirmation, read-out: Pf asexual growth inhibition assays IC50
[13] = 3D7, 72 h, LDH readout, read-out: IC50 Pf Asexual
[14] = read-out: % inhibition, Replicate A
[15] = read-out: % inhibition, Replicate B
[16] = read-out: IC50 Pb ODA, dose response, at least triplicate
[17] = read-out: Pb Ookinete development assay IC50 (µM), dose response confirmation

For `Cc1[nH]c(C)c(-c2ccc(CCc3ccc(F)cc3F)cc2)c(=O)c1Br` [TCMDC-135461], the “Is compound selective in assay? Pb ODA active?” value [1] was 1 (key: 1: YES; 0: NO), the “Pf DGFA Female, Expt 1” value [2] was 72.43 and the “Pf DGFA Female, Expt 2” value [2] was 81.97. For the same compound, the “Pf DGFA Female, Expt 3” value [2] was -31.20, the “Pf DGFA Female, Expt 4” value [2] was -13.42 and the “% inhibition Pf DGFA (female) 1 μM (±SEM)” value ([2]; 1 μM, mean of four experiments) was 27.45%. The inhibition at 1 µM [2] was 27.4%, the “Mean (number of oocysts counted per mosquito)” value ([3]; Experiment 4, 10nM) was 0.78 and the Prevalence ([3]; Experiment 4, 10nM) was 45.65. For the same compound, the “Mean (number of oocysts counted per mosquito)” value ([3]; Experiment 4, 100nM) was 0.00, the “Mean (number of oocysts counted per mosquito)” value ([3]; Experiment 4, 1µM) was 0.00 and the Prevalence ([3]; Experiment 4, 1µM) was 0.00. For the same compound, the “Raw mosquito counts (oocysts per mosquito)” value ([3]; Experiment 4, 100nM) was 0, the “Raw mosquito counts (oocysts per mosquito)” value ([3]; Experiment 4, 1µM) was 0 and the “Mean (number of oocysts counted per mosquito)” value ([3]; Experiment 5, 10nM) was 2.70. For the same compound, the Prevalence ([3]; Experiment 5, 10nM) was 45.65, the “Mean (number of oocysts counted per mosquito)” value ([3]; Experiment 5, 100nM) was 1.53 and the “Number of oocysts counted per mosquito (raw mosquito counts)” value ([3]; Experiment 5, 100nM) was 0 and 1 and 3. The “Mean (number of oocysts counted per mosquito)” value ([3]; Experiment 5, 1µM) was 0.00, the Prevalence ([3]; Experiment 5, 1µM) was 0.00 and the “Number of oocysts counted per mosquito (raw mosquito counts)” value ([3]; Experiment 5, 1µM) was 0. For the same compound, the “Raw mosquito counts (oocysts per mosquito)” value ([3]; Experiment 5, 1µM) was 0, the “Mean (number of oocysts counted per mosquito)” value ([3]; Experiment 6, 10nM) was 58.31 and the Prevalence ([3]; Experiment 6, 10nM) was 98.15. For the same compound, the “Mean (number of oocysts counted per mosquito)” value ([3]; Experiment 6, 100nM) was 21.75, the Prevalence ([3]; Experiment 6, 100nM) was 86.76 and the “Number of oocysts counted per mosquito (raw mosquito counts)” value ([3]; Experiment 6, 100nM) was 30. For the same compound, the “Mean (number of oocysts counted per mosquito)” value ([3]; Experiment 6, 1µM) was 0.00, the Prevalence ([3]; Experiment 6, 1µM) was 0.00 and the “Number of oocysts counted per mosquito (raw mosquito counts)” value ([3]; Experiment 6, 1µM) was 0. The “Raw mosquito counts (oocysts per mosquito)” value ([3]; Experiment 6, 1µM) was 0, the inhibition at 0.1 µM ([3]; read-out: % inhibition (oocyst intensity), Experiment 4, 100nM, vs DMSO) was 100% and the inhibition at 1 µM ([3]; read-out: % inhibition (oocyst intensity), Experiment 4, 1µM, vs DMSO) was 100%. The inhibition at 0.01 µM ([3]; read-out: % inhibition (oocyst intensity), Experiment 5, 10nM, vs DMSO) was 28.9%, the inhibition at 0.1 µM ([3]; read-out: % inhibition (oocyst intensity), Experiment 5, 100nM, vs DMSO) was 59.6% and the inhibition at 1 µM ([3]; read-out: % inhibition (oocyst intensity), Experiment 5, 1µM, vs DMSO) was 100%. The inhibition at 0.01 µM ([3]; read-out: % inhibition (oocyst intensity), Experiment 6, 10nM, vs DMSO) was 30.5%, the inhibition at 0.1 µM ([3]; read-out: % inhibition (oocyst intensity), Experiment 6, 100nM, vs DMSO) was 74.1% and the inhibition at 1 µM ([3]; read-out: % inhibition (oocyst intensity), Experiment 6, 1µM, vs DMSO) was 100%. It also gave an inhibition at 1 µM [3, 11] of 100%, an inhibition at 1 µM ([3]; read-out: % prev inhibition, Experiment 4, 1µM, vs DMSO) of 100% and an inhibition at 1 µM ([3]; read-out: % prev inhibition, Experiment 5, 1µM, vs DMSO) of 100%. The inhibition at 0.01 µM ([3]; read-out: % prev inhibition, Experiment 6, 10nM, vs DMSO) was 1.85%, the inhibition at 0.1 µM ([3]; read-out: % prev inhibition, Experiment 6, 100nM, vs DMSO) was 13.2% and the inhibition at 1 µM ([3]; read-out: % prev inhibition, Experiment 6, 1µM, vs DMSO) was 100%. The inhibition at 0.01 µM ([3]; read-out: inhibition of oocyst intensity Pb SMFA, 10 nM) was 43%, the inhibition at 0.1 µM ([3]; read-out: inhibition of oocyst intensity Pb SMFA, 100 nM) was 77.9% and the IC50 [4, 12] was 3 nM. The IC50 [4, 13] was 3.1 nM, the “Pf DGFA Male, Expt 1” value [5] was 97.72 and the “Pf DGFA Male, Expt 2” value [5] was 60.95. The “Pf DGFA Male, Expt 3” value [5] was 69.63, the “Pf DGFA Male, Expt 4” value [5] was 73.29 and the inhibition at 1 µM ([5]; Plasmodium falciparum, read-out: % inhibition Pf DGFA (male) 1 μM (±SEM), 1 μM, mean of four experiments) was 75.4%. It also gave an inhibition at 1 µM [6, 14] of 68.3%, an inhibition at 1 µM [6, 15] of 109% and an IC50 [6, 16] of less than 0.0002 µM. The “Pb ODA (this manuscript) HepG2 cytoxicity” value (HepG2 cells [7]) was 100.00 µM and the IC50 (HepG2 cells [7]) was greater than 100000 nM.

For `CC[C@H]1CN2CCc3cc(OC)c(OC)cc3[C@@H]2C[C@@H]1C[C@H]1NCCc2cc(OC)c(OC)cc21` [TCMDC-125531], the “HepG2 cytoxicity” value (HepG2 cells [8]; value reported with the Pf FGAA screen, ref Miguel-Blanco et al 2017) is listed as 9.77 µM, the “HepG2 cytoxicity” value (HepG2 cells [8]; value reported with the Pf GCT ATP screen, ref Almela et al 2016) is listed as 21.03 µM and the IC50 [9] is listed as 2730 nM. For the same compound, the IC50 [4, 12] was 72 nM, the IC50 [10] was 350 nM and the inhibition at 1 µM [6, 14] was 93.2%. The inhibition at 1 µM [6, 15] was 121%, the IC50 ([6]; read-out: Pb ODA IC50 (µM), this manuscript) was 0.21 µM and the IC50 [6, 17] was 0.213 µM. The IC50 at 48 h (HepG2 cytotoxicity assay) was 1550 nM, the “Unified cytotox” value (HepG2 cells [7]; human) was 10.78 µM and the “HepG2 cytoxicity” value (HepG2 cells [7]; value reported with the Pb ODA screen, this manuscript) was 1.55 µM.

For `NC(=O)c1ccccc1Nc1nc(Nc2cccc(N3CCN(CCO)CC3)c2)ncc1Cl` [TCMDC-134114], the “Assay tox ratio Pb ODA (red: <10-fold selectivity; green: >10-fold)” value [1] was 747.08, the “Is compound selective in assay? Pb ODA active?” value [1] was 1 (key: 1: YES; 0: NO) and the “Pf DGFA Female, Expt 1” value [2] was 18.27. For the same compound, the “Pf DGFA Female, Expt 2” value [2] was -46.13, the “Pf DGFA Female, Expt 3” value [2] was -5.85 and the “Pf DGFA Female, Expt 4” value [2] was -25.02. The inhibition at 1 µM [2] was -14.7%, the inhibition at 1 µM [3, 11] was 97% and the IC50 [4, 12] was 22 nM. For the same compound, the IC50 [4, 13] was 21.5 nM, the “Pf DGFA Male, Expt 1” value [5] was 100.00 and the “Pf DGFA Male, Expt 2” value [5] was 99.14. The “Pf DGFA Male, Expt 3” value [5] was 99.70, the “Pf DGFA Male, Expt 4” value [5] was 100.00 and the “% inhibition Pf DGFA (male) 1 μM (±SEM)” value ([5]; 1 μM, mean of four experiments) was 99.71%. It also gave an inhibition at 1 µM [6, 14] of 106%, an inhibition at 1 µM [6, 15] of 96.7% and an IC50 [6, 16] of less than 0.06 µM. For the same compound, the IC50 ([6]; read-out: Pb ODA (this manuscript) IC50 (µM), P. berghei ookinete development assay, this manuscript) was 0.0558 µM, the IC50 [6, 17] was 0.056 µM and the IC50 at 48 h (HepG2 cytotoxicity assay) was 41700 nM. For the same compound, the “Pb ODA (this manuscript) HepG2 cytoxicity” value (HepG2 cells [7]) was 41.69 µM and the IC50 (HepG2 cells [7]) was 41700 nM.
